In US8802597B2, “Herbicidal pyrimidines” (E I du Pont de Nemours and Company, priority 2003, dated 2014):

Legend:
Experiment in all cases: Test C postemergence
Format in all cases: in vivo
[1] = system: Italian ryegrass (Lolium multiflorum); details: for Plant response rating, Ryegrass, Italian: scale 0 to 100
How it was run: (§1)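 Applications: preemergence onto seeded soil and postemergence onto 1- to 4-leaf seedlings, compound carried in non-phytotoxic solvent plus surfactant. Kept in greenhouse 12 to 14 days. Scored visually relative to untreated controls, 0 (no effect) to 100 (complete control).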

[2] = system: blackgrass (Alopecurus myosuroides); details: for Plant response rating, Blackgrass: scale 0 to 100
How it was run: as §1

[3] = system: canarygrass (Phalaris minor); details: for Plant response rating, Canarygrass: scale 0 to 100
How it was run: as §1

[4] = system: downy brome (Bromus tectorum); details: for Plant response rating, Bromegrass, Downy: scale 0 to 100
How it was run: as §1

[5] = system: green foxtail (Setaria viridis); details: for Plant response rating, Foxtail, Green: scale 0 to 100
How it was run: as §1

[6] = system: wheat (Triticum aestivum); details: for Plant response rating, Wheat: scale 0 to 100
How it was run: as §1

[7] = system: wild oat (Avena fatua); details: for Plant response rating, Oat, Wild: scale 0 to 100
How it was run: as §1

[8] = system: windgrass (Apera spica-venti); details: for Plant response rating, Windgrass: scale 0 to 100
How it was run: as §1

[9] = system: winter barley (Hordeum vulgare); details: for Plant response rating, Barley: scale 0 to 100
How it was run: as §1

[10] = 62 g ai/ha, scale 0 to 100 (0 no effect, 100 complete control)
[11] = 125 g ai/ha, scale 0 to 100 (0 no effect, 100 complete control)

CCOC(=O)C(Cl)(Cl)c1nc(C2CC2)nc(N)c1Br [Compound 34]
Plant response rating (scale of 0 to 100), Ryegrass, Italian ([1]; 31 g ai/ha): 40
Ryegrass, Italian plant response rating [1, 10]: 40
Ryegrass, Italian plant response rating [1, 11]: 45
Plant response rating, Ryegrass, Italian ([1]; 250 g ai/ha): 60
Plant response rating (scale of 0 to 100), Blackgrass ([2]; 31 g ai/ha): 0
Blackgrass plant response rating [2, 10]: 35
Blackgrass plant response rating [2, 11]: 35
Plant response rating, Blackgrass ([2]; 250 g ai/ha): 45
Plant response rating (scale of 0 to 100), Canarygrass ([3]; 31 g ai/ha): 20
Canarygrass plant response rating [3, 10]: 30
Canarygrass plant response rating [3, 11]: 35
Plant response rating, Canarygrass ([3]; 250 g ai/ha): 45
Plant response rating (scale of 0 to 100), Bromegrass, Downy ([4]; 31 g ai/ha): 0
Bromegrass, Downy plant response rating [4, 10]: 0
Bromegrass, Downy plant response rating [4, 11]: 30
Plant response rating, Bromegrass, Downy ([4]; 250 g ai/ha): 35
Plant response rating (scale of 0 to 100), Foxtail, Green ([5]; 31 g ai/ha): 40
Foxtail, Green plant response rating [5, 10]: 40
Foxtail, Green plant response rating [5, 11]: 45
Plant response rating, Foxtail, Green ([5]; 250 g ai/ha): 45
Plant response rating (scale of 0 to 100), Wheat ([6]; 31 g ai/ha): 0
Wheat plant response rating [6, 10]: 20
Wheat plant response rating [6, 11]: 30
Plant response rating, Wheat ([6]; 250 g ai/ha): 35
Plant response rating (scale of 0 to 100), Oat, Wild ([7]; 31 g ai/ha): 20
Oat, Wild plant response rating [7, 10]: 40
Oat, Wild plant response rating [7, 11]: 45
Plant response rating, Oat, Wild ([7]; 250 g ai/ha): 50
Plant response rating (scale of 0 to 100), Windgrass ([8]; 31 g ai/ha): 40
Windgrass plant response rating [8, 10]: 40
Windgrass plant response rating [8, 11]: 50
Plant response rating, Windgrass ([8]; 250 g ai/ha): 60
Plant response rating (scale of 0 to 100), Barley ([9]; 31 g ai/ha): 20
Barley plant response rating [9, 10]: 20
Barley plant response rating [9, 11]: 30
Plant response rating, Barley ([9]; 250 g ai/ha): 40

COC(=O)c1nc(C2CC2)nc(NO)c1Br [Compound 35]
Plant response rating, Ryegrass, Italian ([1]; 250 g ai/ha): 40
Plant response rating, Ryegrass, Italian ([1]; 500 g ai/ha): 40
pest or weed control at 62 g/ha ([1]; Lolium multiflorum, post-emergence, 62 g ai/ha, scale 0 to 100 (0 no effect, 100 complete control), read-out: Ryegrass, Italian plant response rating): 40%
pest or weed control at 125 g/ha ([1]; Lolium multiflorum, post-emergence, 125 g ai/ha, scale 0 to 100 (0 no effect, 100 complete control), read-out: Ryegrass, Italian plant response rating): 40%
Plant response rating, Blackgrass ([2]; 250 g ai/ha): 60
Plant response rating, Blackgrass ([2]; 500 g ai/ha): 65
pest or weed control at 62 g/ha ([2]; Alopecurus myosuroides, post-emergence, 62 g ai/ha, scale 0 to 100 (0 no effect, 100 complete control), read-out: Blackgrass plant response rating): 50%
pest or weed control at 125 g/ha ([2]; Alopecurus myosuroides, post-emergence, 125 g ai/ha, scale 0 to 100 (0 no effect, 100 complete control), read-out: Blackgrass plant response rating): 50%
Plant response rating, Canarygrass ([3]; 250 g ai/ha): 45
Plant response rating, Canarygrass ([3]; 500 g ai/ha): 55
pest or weed control at 62 g/ha ([3]; Phalaris minor, post-emergence, 62 g ai/ha, scale 0 to 100 (0 no effect, 100 complete control), read-out: Canarygrass plant response rating): 35%
pest or weed control at 125 g/ha ([3]; Phalaris minor, post-emergence, 125 g ai/ha, scale 0 to 100 (0 no effect, 100 complete control), read-out: Canarygrass plant response rating): 45%
Plant response rating, Bromegrass, Downy ([4]; 250 g ai/ha): 40
Plant response rating, Bromegrass, Downy ([4]; 500 g ai/ha): 40
pest or weed control at 62 g/ha ([4]; Bromus tectorum, post-emergence, 62 g ai/ha, scale 0 to 100 (0 no effect, 100 complete control), read-out: Bromegrass, Downy plant response rating): 30%
pest or weed control at 125 g/ha ([4]; Bromus tectorum, post-emergence, 125 g ai/ha, scale 0 to 100 (0 no effect, 100 complete control), read-out: Bromegrass, Downy plant response rating): 30%
Plant response rating, Foxtail, Green ([5]; 250 g ai/ha): 60
Plant response rating, Foxtail, Green ([5]; 500 g ai/ha): 65
pest or weed control at 62 g/ha ([5]; Setaria viridis, post-emergence, 62 g ai/ha, scale 0 to 100 (0 no effect, 100 complete control), read-out: Foxtail, Green plant response rating): 40%
pest or weed control at 125 g/ha ([5]; Setaria viridis, post-emergence, 125 g ai/ha, scale 0 to 100 (0 no effect, 100 complete control), read-out: Foxtail, Green plant response rating): 50%
Plant response rating, Wheat ([6]; 250 g ai/ha): 45
Plant response rating, Wheat ([6]; 500 g ai/ha): 45
plant injury at 62 g/ha ([6]; Triticum aestivum, post-emergence, 62 g ai/ha, scale 0 to 100 (0 no effect, 100 complete control), read-out: Wheat plant response rating): 35%
plant injury at 125 g/ha ([6]; Triticum aestivum, post-emergence, 125 g ai/ha, scale 0 to 100 (0 no effect, 100 complete control), read-out: Wheat plant response rating): 40%
Plant response rating, Oat, Wild ([7]; 250 g ai/ha): 45
Plant response rating, Oat, Wild ([7]; 500 g ai/ha): 55
pest or weed control at 62 g/ha ([7]; Avena fatua, post-emergence, 62 g ai/ha, scale 0 to 100 (0 no effect, 100 complete control), read-out: Oat, Wild plant response rating): 30%
pest or weed control at 125 g/ha ([7]; Avena fatua, post-emergence, 125 g ai/ha, scale 0 to 100 (0 no effect, 100 complete control), read-out: Oat, Wild plant response rating): 45%
Plant response rating, Windgrass ([8]; 250 g ai/ha): 65
Plant response rating, Windgrass ([8]; 500 g ai/ha): 65
pest or weed control at 62 g/ha ([8]; Apera spica-venti, post-emergence, 62 g ai/ha, scale 0 to 100 (0 no effect, 100 complete control), read-out: Windgrass plant response rating): 40%
pest or weed control at 125 g/ha ([8]; Apera spica-venti, post-emergence, 125 g ai/ha, scale 0 to 100 (0 no effect, 100 complete control), read-out: Windgrass plant response rating): 55%
Plant response rating, Barley ([9]; 250 g ai/ha): 40
Plant response rating, Barley ([9]; 500 g ai/ha): 45
plant injury at 62 g/ha ([9]; Hordeum vulgare, post-emergence, 62 g ai/ha, scale 0 to 100 (0 no effect, 100 complete control), read-out: Barley plant response rating): 20%
plant injury at 125 g/ha ([9]; Hordeum vulgare, post-emergence, 125 g ai/ha, scale 0 to 100 (0 no effect, 100 complete control), read-out: Barley plant response rating): 35%
